Laboratory results reported in patent US20030148970A1, “Methods for specifically inhibiting histone deacetylase-4” (priority 2001, published 2003).

Experiments:
A549 = assay: Cell Death Detection ELISA apoptosis, A549; assay type: cell-based, human; details: 48 Hour Treatment; TSA at 100 ng/ml
Description: (§1) In order to determine the effect of HDAC OSDNs on cell growth and cell death through apoptosis, A549 or T24 cells, MDAmb231 cells, and HMEC cells (ATCC, Manassas, Va.) were treated with HDAC OSDNs as previously described.
(§2) For the apoptosis study, cells were analyzed using the Cell Death Detection ELISA Plus kit (Roche Diagnostic GmBH, Mannheim, Germany) according to the manufacturer's directions. Typically, 10,000 cells were plated in 96-well tissue culture dishes for 2 hours before harvest and lysis. Each sample was analyzed in duplicate. ELISA reading was done using a MR700 plate reader (DYNEX Technology, Ashford, Middlesex, England) at 410 nm. The reference was set at 490 nm.

T24 = assay: Cell Death Detection ELISA apoptosis, T24; assay type: cell-based, human; details: 48 Hour Treatment; TSA at 100 ng/ml
Description: as §1, §2

MDAmb231 = assay: Cell Death Detection ELISA apoptosis, MDAmb231; assay type: cell-based, human; details: 48 Hour Treatment; TSA at 100 ng/ml
Description: as §1, §2

HMEC = assay: Cell Death Detection ELISA apoptosis, HMEC; assay type: cell-based, human; details: 48 Hour Treatment; TSA at 100 ng/ml; normal cells
Description: as §1, §2

p21 mRNA = assay: RNase protection assay, p21 in A549; assay type: cell-based, human; details: TSA 250 ng/ml, 16 hours
Description: (§7) As a control, A549 cells were treated by lipofectin with or without TSA (250 ng/ml) treatment for 16 hours. These RNase protection assays were done according to the following procedure. Total RNA from cells was prepared using “RNeasy miniprep kit” from QIAGEN following the manufacturer's manual. Labeled probes used in the protection assays were synthesized using “hStress-1 multiple-probe template sets” from Pharmingen (San Diego, Calif., U.S.A.) according to the manufacturer's instructions. Protection procedures were performed using “RPA II™ Ribonuclease Protection Assay Kit” from Ambion, (Austin, Tx.) following the manufacturer's instructions. Quantitation of the bands from autoradiograms was done by using Cyclone™ Phosphor System (Packard Instruments Co. Inc., Meriden, Conn.).

GADD45 mRNA = assay: RNase protection assay, GADD45 in A549; assay type: cell-based, human; details: TSA 250 ng/ml, 16 hours
Description: as §7

Bax mRNA = assay: RNase protection assay, Bax in A549; assay type: cell-based, human; details: TSA 250 ng/ml, 16 hours
Description: as §7

mammalian HDAC = details: Yoshida et al. 1990; cited from earlier work
[1] = tested on: murine erythroleukemia cells; details: Yoshida et al. 1987; cited from earlier work
human HDAC-6 RNA = assay: antisense ODN screen in T24 cells, Northern blot, HDAC-6; assay type: cell-based; details: 100 nM, 24 hours
Description: Thirteen phosphorothloate ODNs containing sequences complementary to the 5′ or 3′ untranslated regions of the human HDAC-6 gene (GenBank Accession No. AJ011972) were screened as above. […] HDAC-6 MM oligo was created as a control; compared to the antisense oligo, it contains a 7-base mismatch.
(§3) Briefly, human A549 and/or T24 human bladder carcinoma cells were seeded in 10 cm tissue culture dishes one day prior to oligonucleotide treatment. The cell lines were obtained from the American Type Culture Collection (ATCC) (Manassas, Va.) and were grown under the recommended culture conditions. Before the addition of the oligonucleotides, cells were washed with PBS (phosphate buffered saline). Next, lipofectin transfection reagent (GIBCO BRL Mississauga, Ontario, Calif.), at a concentration of 6.25 μg/ml, was added to serum free OPTIMEM medium (GIBCO BRL, Rockville, Md.), which was then added to the cells. The oligonucleotides to be screened were then added directly to the cells (i.e., one oligonucleotide per plate of cells). Mismatched oligonucleotides were used as controls. The same concentration of oligonucleotide (e.g., 50 nM) was used per plate of cells for each oligonucleotide tested.
(§4) Cells were harvested, and total RNAs were analyzed by Northern blot analysis. Briefly, total RNA was extracted using RNeasy miniprep columns (QIAGEN). […]

human HDAC-6 protein = assay: Western blot of HDAC-6 protein in A549 cells; assay type: cell-based; details: 50 nM, 48 hours
Description: (§5) OSDN treatment conditions were as previously described.
(§6) Cells were lysed in buffer containing 1% Triton X-100, 0.5% sodium deoxycholate, 5 mM EDTA, 25 mM Tris-HCl, pH 7.5, plus protease inhibitors. Total protein was quantified by the protein assay reagent from Bio-Rad (Hercules, Calif.). 100 ug of total protein was analyzed by SDS-PAGE. Next, total protein was transferred onto a PVDF membrane and probed with various HDAC-specific primary antibodies. Rabbit anti-HDAC-1 (H-51), anti-HDAC-2 (H-54) antibodies (Santa Cruz Biotechnologies, Santa Cruz, Calif.) were used at 1:500 dilution. Rabbit anti-HDAC-3 antibody (Sigma, St. Louis, Mo.) was used at a dilution of 1:1000. Anti-HDAC-4 antibody was prepared as previously described (Wang, S. H. et al., (1999) Mol. Cell. Biol. 19:7816-27), and was used at a dilution of 1:1000. Anti-HDAC-6 antibody was raised by immunizing rabbits with a GST fusion protein containing a fragment of HDAC-6 protein (amino acid #990 to #1216, GenBank Accession No. AAD29048). Rabbit antiserum was tested and found only to react specifically to the human HDAC-6 isoform. HDAC-6 antiserum was used at 1:500 dilution in Western blots to detect HDAC-6 in total cell lysates. Horse Radish Peroxidase conjugated secondary antibody was used at a dilution of 1:5000 to detect primary antibody binding. […]

human cancer cells = assay: cell growth analysis (trypan blue) and apoptosis, cancer cells; assay type: cell-based; details: 50 nM
Description: as §1, §2
Cells were harvested and cell numbers counted by trypan blue exclusion using a hemocytometer. Percentage of inhibition was calculated as (100-AS cell numbers/control cell numbers)%.

human HDAC-2 RNA = assay: antisense ODN screen in T24 cells, Northern blot, HDAC-2; assay type: cell-based; details: 100 nM, 24 hours
Description: Twenty-four phosphorothioate ODNs containing sequences complementary to the 5′ or 3′ UTR of the human HDAC-2 gene (GenBank Accession No. U31814) were screened as above. […] HDAC-2 MM was created as a control; compared to the antisense oligo, it contains a 7-base mismatch.
as §3, §4

human HDAC-2 protein = assay: Western blot of HDAC-2 protein in A549 cells; assay type: cell-based; details: 50 nM, 48 hours
Description: as §5, §6

human HDAC-3 RNA = assay: antisense ODN screen in T24 cells, Northern blot, HDAC-3; assay type: cell-based; details: 100 nM, 24 hours
Description: Twenty-one phosphorothioate ODNs containing sequences complementary to the 5′ or 3′ UTR of the human HDAC-3 gene (GenBank Accession No. AF039703) were screened as above. […] HDAC-3 MM oligo was created as a control; compared to the antisense oligo, it contains a a 6-base mismatch.
as §3, §4

human HDAC-3 protein = assay: Western blot of HDAC-3 protein in A549 cells; assay type: cell-based; details: 50 nM, 48 hours
Description: as §5, §6

| Molecule | Apoptosis, A549 (A549) | Apoptosis, T24 (T24) | Apoptosis, MDAmb231 (MDAmb231) | Apoptosis, HMEC (HMEC) | fold induction of transcription, p21, A549, TSA vs lipofectin (p21 mRNA) | fold induction of transcription, GADD45, A549, TSA vs lipofectin (GADD45 mRNA) | fold induction of transcription, Bax, A549, TSA vs lipofectin (Bax mRNA) | inhibition of mammalian HDAC (mammalian HDAC) | induction of differentiation in murine erythroleukemia cells [1] | antisense activity, HDAC-6 RNA expression (human HDAC-6 RNA) | expression of HDAC-6 protein (human HDAC-6 protein) | effect on cancer cell growth and apoptosis (human cancer cells) | antisense activity, HDAC-2 RNA expression (human HDAC-2 RNA) | expression of HDAC-2 protein (human HDAC-2 protein) | antisense activity, HDAC-3 RNA expression (human HDAC-3 RNA) | expression of HDAC-3 protein (human HDAC-3 protein) |
| --- | --- | --- | --- | --- | --- | --- | --- | --- | --- | --- | --- | --- | --- | --- | --- | --- |
| CC(/C=C/C(=O)NO)=C\[C@@H](C)C(=O)c1ccc(N(C)C)cc1 [TSA, (R)-Trichostatin A] | ++ (“++”: 3-5× fold) | ++ (“++”: 3-5× fold) | ++ (“++”: 3-5× fold) | + (“+”: 2-3× fold) | 2.8 fold | 0.6 fold | 0.8 fold | potent inhibitor of mammalian HDAC | potent inducer of differentiation | – | – | – | – | – | – | – |
| HDAC-6 AS: 5′-CAGGCTGGAATGAGCTACAG-3′, antisense to human HDAC6 3′-UTR, AJ011972 (chemistry not given here) | − (“−”: <= 2× fold over non-specific background) | − (“−”: <= 2× fold over non-specific background) | − (“−”: <= 2× fold over non-specific background) | − (“−”: <= 2× fold over non-specific background) | – | – | – | – | – | antisense activity to human HDAC-6 | specifically inhibits the expression of the respective HDAC isotype protein | no effect on cancer cell growth or apoptosis | – | – | – | – |
| HDAC-2 AS: 5′-GCTGAGCTGTTCTGATTTGG-3′, antisense to human HDAC2 3′-UTR, U31814 (chemistry not given here) | − (“−”: <= 2× fold over non-specific background) | − (“−”: <= 2× fold over non-specific background) | − (“−”: <= 2× fold over non-specific background) | − (“−”: <= 2× fold over non-specific background) | – | – | – | – | – | – | – | minimal effect on cancer cell growth inhibition | antisense activity to human HDAC-2 | specifically inhibits the expression of the respective HDAC isotype protein | – | – |
| HDAC-3 AS: 5′-CGCTTTCCTTGTCATTGACA-3′, antisense to human HDAC3 3′-UTR, AF039703 (chemistry not given here) | − (“−”: <= 2× fold over non-specific background) | − (“−”: <= 2× fold over non-specific background) | − (“−”: <= 2× fold over non-specific background) | − (“−”: <= 2× fold over non-specific background) | – | – | – | – | – | – | – | no effect on cancer cell growth or apoptosis | – | – | antisense activity to human HDAC-3 | specifically inhibits the expression of the respective HDAC isotype protein |
